From US11292767B2, “Heterocyclic inhibitors of MCT4” (Vettore, LLC, priority 2016, dated 2022)

Tests used:
[1] = Metabolic stability in mouse liver microsomes (in vitro t1/2); assay type: in vitro ADME; details: mouse liver microsomes 0.5 mg/mL, 2 μM compound; for Mouse microsome t1/2, min: in vitro t1/2; for Mouse microsome % 60 min: % remaining at 60 min
Experimental: (§1) Metabolic Stability Assays The following are assays that may be used to evaluate the metabolic stability of compounds of Formula (I) in human, rat, or mouse microsomes. The assays follow a common procedure recited below. 1. […] Two separated experiments were performed as follows. a) With NADPH: 10 μL of 20 mg/mL liver microsomes and 40 μL of 10 mM NADPH were added to the incubations. […] The final concentration of microsomes was 0.5 mg/mL. 3. The reaction was started with the addition of 4 μL of 200 μM control compound or test compound solutions. Verapamil was used as positive control in this study. The final concentration of test compound or control compound was 2 μM. 4. Aliquots of 50 μL were taken from the reaction solution at 0, 15, 30, 45 and 60 min. […] Samples were centrifuged at 3,220 g for 40 minutes. A 90 μL aliquot of the supernatant was mixed with 90 μL of ultra-pure H2O and then used for LC-MS/MS analysis. 5. Data analysis. All calculations were carried out using Microsoft Excel. Peak areas were determined from extracted ion chromatograms. The slope value, k, was determined by linear regression of the natural logarithm of the remaining percentage of the parent drug vs. incubation time curve. The in vitro half-life (in vitro t1/2) was determined from the slope value: in vitro t1/2=−(0.693)/k.

[2] = Metabolic stability in human liver microsomes (in vitro t1/2); assay type: in vitro ADME; details: human liver microsomes 0.5 mg/mL, 2 μM compound, % remaining at 60 min
Experimental: as §1

[3] = Metabolic stability in rat liver microsomes (in vitro t1/2); assay type: in vitro ADME; details: rat liver microsomes 0.5 mg/mL, 2 μM compound; for Rat microsome % 60 min: % remaining at 60 min
Experimental: as §1

[4] = Pharmacokinetic assay in mouse (IV 3 mg/kg, PO 10 mg/kg); assay type: in vivo; details: male, CD1, mouse, plasma, read-out: Mouse F (%)
Source text: (§2) Pharmacokinetic Assays in Mouse and Rat
(§3) The following are assays that may be used to evaluate the pharmacokinetic properties of Formula (I) in mouse or rat. The assays follow a common procedure recited below.
(§4) 1. […] For PO (oral gavage), DMSO/PEG400 (10:90). Formulations freshly prepared on the day of dosing or prior to dosing. Storage at room temperature.
(§5) 2. Test Species: For Mouse: Male CD1 strain, approximately 6-8 weeks in age, approximately 20-30 g. For Rat: Male Sprague-Dawley strain, approximately 6-8 weeks in age, approximately 200-300 g.
(§6) 3. Dose Level: For IV, 3 mg/kg. For PO, 10 mg/kg.
(§7) 4. Number of animals: 3 per assay.
(§8) 5. PK time points: For IV (plasma): 5 min, 15 min, 1, 2, 4, 6, 8, 24 h post dose. For PO (plasma): 15 min, 30 min, 1, 2, 4, 6, 8, 24 h post dose.
(§9) 6. Blood Sample Collection and Processing. Blood was collected (˜0.2 mL per time point) from jugular vein. Blood of each sample was transferred into plastic micro centrifuge tubes containing anticoagulant of EDTA-K2. Blood samples were centrifuged at 2,000 g for 5 minutes at 4° C. to obtain plasma.
(§10) 7. Samples Analysis: Plasma samples were analyzed using LC/MS/MS method, and pharmacokinetic parameters (half-life: t1/2; oral bioavailability: F; volume of distribution: Vss).

[5] = Pharmacokinetic assay in rat (IV 3 mg/kg, PO 10 mg/kg); assay type: in vivo; details: male, Sprague-Dawley, plasma, read-out: Rat F (%)
Source text: as §2, §3, §4, §5, §6, §7, §8, §9, §10

MCT1 = MCT1 (Homo sapiens (Human), UniProt P53985); experiment: Assay 4: MCT1-mediated lactate transport in BT20 breast cancer cells; assay type: cell-based; details: lactate transport (Table 27)
Experimental: Preparing BCECF-Loaded Cells
10 µL of a 30 mM DMSO stock of BCECF-AM ester (Life Technologies) is added and the cells are incubated at 37° C. for 5 min. The cells are pelleted (300 g, 5 min), washed once with 1 mL Tyrode's Solution, pH 7.4, re-pelleted (300 g, 5 min), and resuspended in 1 mL Tyrode's Solution, pH 7.4.
Assay 4: MCT1-Mediated Lactate Transport in BT20 Breast Cancer Cells.
Preparation of BCECF loaded cells are as described for Assay 1. Lactate transport assay is as described for Assay 1, except 10 mM L-lactate (rather than 50 mM) is added.

CFA-induced arthritis [6] = experiment: Adjuvant-induced arthritis model in rat: Mechanical Allodynia test (MA); assay type: in vivo; details: SD rat, PO 3 days post CFA, compared to dexamethasone
CFA-induced arthritis [7] = experiment: Adjuvant-induced arthritis model in rat: Difference of Weight Bearing test (DWB); assay type: in vivo; details: SD rat, PO 3 days post CFA, compared to dexamethasone

Sequence of MCT1 (P53985 whole entry): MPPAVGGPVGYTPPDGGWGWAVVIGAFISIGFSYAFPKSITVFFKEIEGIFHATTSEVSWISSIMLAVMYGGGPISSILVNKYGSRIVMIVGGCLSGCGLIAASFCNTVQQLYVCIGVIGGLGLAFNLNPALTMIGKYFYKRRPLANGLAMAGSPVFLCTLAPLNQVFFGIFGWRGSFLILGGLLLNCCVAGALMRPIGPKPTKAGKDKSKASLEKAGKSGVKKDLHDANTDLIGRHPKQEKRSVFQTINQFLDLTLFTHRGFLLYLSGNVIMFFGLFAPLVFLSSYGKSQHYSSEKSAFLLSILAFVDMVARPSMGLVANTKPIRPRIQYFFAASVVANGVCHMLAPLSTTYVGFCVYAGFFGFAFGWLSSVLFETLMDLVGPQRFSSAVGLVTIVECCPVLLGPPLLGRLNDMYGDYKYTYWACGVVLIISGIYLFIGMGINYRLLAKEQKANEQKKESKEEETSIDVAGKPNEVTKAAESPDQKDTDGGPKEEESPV
Sequence of MCT1 (P35613 140-385 partner): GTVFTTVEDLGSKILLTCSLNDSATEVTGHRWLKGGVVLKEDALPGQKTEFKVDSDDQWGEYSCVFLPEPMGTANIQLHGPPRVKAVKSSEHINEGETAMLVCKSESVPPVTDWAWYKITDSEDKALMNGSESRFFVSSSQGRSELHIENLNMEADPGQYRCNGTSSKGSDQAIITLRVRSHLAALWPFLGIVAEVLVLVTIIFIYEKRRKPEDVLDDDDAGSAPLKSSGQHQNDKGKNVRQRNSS

Human microsome % 60 min [2] [%] | bioavailability [4] [%] | bioavailability [5] [%] | IC50 (MCT1) [nM] | SMILES | also measured
96 | 76 | 76 | – | CCn1ncc2ccc(-c3cc(CO[C@@](C)(CC)C(=O)O)nn3Cc3ccccc3Cl)cc21 [Example 257, (S)-2-((1-(2-chlorobenzyl)-5-(1-ethyl-1H-indazol-6-yl)-1H-pyrazol-3-yl)methoxy)-2-methylbutanoic acid] | Mouse microsome t1/2, min [1]: ∞; Rat microsome t1/2, min ([3]; in vitro t1/2): ∞
– | – | – | > 100000 | COc1cccc(-c2cc(COC(C)(C)C(=O)O)nn2Cc2ccccc2)c1 [Example 53, 2-([1-benzyl-5-(3-methoxyphenyl)-1H-pyrazol-3-yl]methoxy)-2-methyl-propanoic acid] | –
– | – | – | > 100000 | CC(C)(OCc1cc(Nc2ccccc2)n(Cc2ccccc2Cl)n1)C(=O)O [Example 75, 2-([1-[(2-chlorophenyl)methyl]-5-(phenylamino)-1H-pyrazol-3-yl]methoxy)-2-methylpropanoic Acid] | –
– | – | – | > 100000 | CC(C)(OCc1cc(-c2cccc(CN3CCOCC3)c2)n(Cc2ccccc2Cl)n1)C(=O)O [Example 40, 2-([1-[(2-Chlorophenyl)methyl]-5-[3-(morpholinomethyl)phenyl]1H-pyrazol-3-yl]methoxy)-2-methylpropanoic acid] | –
– | 100 | – | – | CCn1ncc2ccc(-c3cc(CO[C@](C)(CC)C(=O)O)nn3-c3ccccc3N3CCC3)cc21 [Example 269, (2R)-2-([1-[2-(Azetidin-1-yl)phenyl]-5-(1-ethyl-1H-indazol-6-yl)-1H-pyrazol-3-yl]methoxy)-2-methylbutanoic acid] | –
– | – | – | > 11000 | CC(C)(OCc1cc(-c2cccc(OC(F)(F)F)c2)n(Cc2ccccc2Cl)n1)C(=O)O [Example 34, 2-([1-[(2-Chlorophenyl)methyl]-5-[3-(trifluoromethoxy)phenyl]1H-pyrazol-3-yl]methoxy)-2-methylpropanoic acid] | –
– | – | – | > 11000 | CC(C)CNc1cccc(-c2cc(COC(C)(C)C(=O)O)nn2Cc2ccccc2Cl)c1 [Example 73, 2-([1-[(2-chlorophenyl)methyl]-5-[3-[(2-methylpropyl)amino]phenyl]-1H-pyrazol-3-yl]methoxy)-2-methyl-propanoic acid] | –
– | 64 | 54 | – | CCCn1ncc2ccc(-c3cc(CO[C@](C)(CC)C(=O)O)nn3-c3ccccc3N3CCC3)cc21 [Example 267, (2R)-2-([1-[2-(azetidin-1-yl)phenyl]-5-(1-propyl-1H-indazol-6-yl)-1H-pyrazol-3-yl]methoxy)-2-methylbutanoic acid] | Mechanical Allodynia (Von Frey), Minimal Efficacious Dose (CFA-induced arthritis [6]): 3 mg/kg; Difference in Weight Bearing, Minimal Efficacious Dose (CFA-induced arthritis [7]): 3 mg/kg
– | – | – | > 100000 | CC(C)(OCc1cc(-c2cccc(S(C)(=O)=O)c2)n(Cc2ccccc2Cl)n1)C(=O)O [Example 70, 2-([1-[(2-Chlorophenyl)methyl]-5-(3-methanesulfonylphenyl)-1H-pyrazol-3-yl]methoxy)-2-methylpropanoic acid] | –
– | – | – | > 33000 | CC(C)(OCc1cc(-c2cccc(OCC(F)(F)F)c2)n(Cc2ccccc2Cl)n1)C(=O)O [Example 43, 2-([1-[(2-Chlorophenyl)methyl]-5-[3-(2,2,2-trifluoroethoxy)phenyl]1H-pyrazol-3-yl]methoxy)-2-methylpropanoic acid] | –
– | – | – | > 100000 | CC(C)NC(=O)c1cccc(-c2cc(COC(C)(C)C(=O)O)nn2Cc2ccccc2Cl)c1 [Example 74, 2-([1-[(2-Chlorophenyl)methyl]-5-[3-[(propan-2-yl)carbamoyl]phenyl]-1H-pyrazol-3-yl]methoxy)-2-methyl-propanoic acid] | –
– | – | – | > 100000 | CC(C)(OCc1cc(-c2ccsc2)n(Cc2ccccc2Cl)n1)C(=O)O [Example 24, 2-([1-[(2-Chlorophenyl)methyl]-5-(thien-3-yl)1H-pyrazol-3-yl]methoxy)-2-methylpropanoic acid] | –
– | – | – | > 100000 | CC(C)C(=O)Nc1cccc(-c2cc(COC(C)(C)C(=O)O)nn2Cc2ccccc2Cl)c1 [Example 69, 2-([1-[(2-Chlorophenyl)methyl]-5-[3-(2-methylpropanamido)phenyl]-1H-pyrazol-3-yl]methoxy)-2-methylpropanoic acid] | –
80 | – | – | > 133000 | COc1cccc(-c2cc(COC(C)(C)C(=O)O)nn2-c2ccccc2Cl)c1 [Example 57, 2-([1-(2-chlorophenyl)-5-(3-methoxyphenyl)-1H-pyrazol-3-yl]methoxy)-2-methylpropanoic acid] | Mouse microsome % 60 min [1]: 100%
84 | 24 | 72 | – | Cn1ncc2cccc(-n3nc(COC(C)(C)C(=O)O)cc3-c3cccc(OCC(C)(C)C)c3)c21 [Example 167, 2-([5-[3-(2,2-dimethylpropoxy)phenyl]-1-(1-methyl-1H-indazol-7-yl)-1H-pyrazol-3-yl]methoxy)-2-methyl-propanoic acid] | Mouse microsome % 60 min [1]: 97%; Rat microsome % 60 min [3]: 72%
71 | 100 | 94 | – | CCn1ncc2ccc(-c3cc(COC(C)(C)C(=O)O)nn3-c3ccccc3N3CCC3)cc21 [Example 228, 2-([1-[2-(Azetidin-1-yl)phenyl]-5-(1-ethyl-1H-indazol-6-yl)-1H-pyrazol-3-yl]methoxy)-2-methylpropanoic acid] | Mouse microsome % 60 min [1]: 96%; Rat microsome % 60 min [3]: 91%
93 | – | 76 | – | COc1cc(OC)cc(-c2cc(COC(C)(C)C(=O)O)nn2-c2ccccc2Cl)c1 [Example 179, 2-([1-(2-Chlorophenyl)-5-(3,5-dimethoxyphenyl)-1H-pyrazol-3-yl]-methoxy)-2-methylpropanoic acid] | Mouse microsome % 60 min [1]: 98%; Mouse microsome t1/2, min [1]: ∞; Rat microsome % 60 min [3]: 85%; Mechanical Allodynia (Von Frey), Minimal Efficacious Dose (CFA-induced arthritis [6]): ≤10 mg/kg; Difference in Weight Bearing, Minimal Efficacious Dose (CFA-induced arthritis [7]): ≤10 mg/kg
78 | 57 | 55 | – | CCOc1ccccc1Cn1nc(COC(C)(C)C(=O)O)cc1-c1cc(OC)cc(OC)c1 [Example 211, 2-([5-(3,5-Dimethoxyphenyl)-1-[(2-ethoxyphenyl)methyl]-1H-pyrazol-3-yl]-methoxy)-2-methylpropanoic acid] | Mouse microsome % 60 min [1]: 43%; Rat microsome % 60 min [3]: 57%
– | – | – | > 100000 | CC(C)(OCc1cc(-c2cscn2)n(Cc2ccccc2Cl)n1)C(=O)O [Example 47, 2-([1-[(2-Chlorophenyl)methyl]-5-(1,3-thiazol-4-yl)-1H-pyrazol-3-yl]methoxy)-2-methylpropionic acid] | –

SMILES | Human microsome % 60 min [2] [%] | bioavailability [4] [%] | bioavailability [5] [%] | IC50 (MCT1) [nM] | also measured
CC(C)(OCc1cc(-c2cccc(OC3CCC3)c2)n(-c2ccccc2N2CCC2)n1)C(=O)O [Example 260, 2-([1-[2-(Azetidin-1-yl)phenyl]-5-(3-cyclobutoxyphenyl)-1H-pyrazol-3-yl]methoxy)-2-methylpropanoic acid] | – | 86 | 85 | – | Mechanical Allodynia (Von Frey), Minimal Efficacious Dose (CFA-induced arthritis [6]): 1 mg/kg; Difference in Weight Bearing, Minimal Efficacious Dose (CFA-induced arthritis [7]): 1 mg/kg
